20 molecules from patent publication US20120122848A1, “(+)-3-HYDROXYMORPHINAN DERIVATIVES AS NEUROPROTECTANTS” (GREEN CROSS CORPORATION, priority 2009, published 2012) can be followed below.

Series [1] in a line: Cell cytotoxicity test: protection of HT22 cells against glutamate toxicity (EC50) and cytotoxicity of the compounds (CC50), MTT. It is filed as cell-based, mouse. The conditions noted are these: mouse, HT22 cells (mouse hippocampal neuron). The essentials:
(§1)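 Cells plated 16 hrs, then exposed to 5 mM glutamate plus a compound concentration series for 24 hrs in DMEM with 10% FBS. Viability by MTT (4 hrs), absorbance at 450 nm; EC50 is protection against glutamate toxicity, CC50 is compound cytotoxicity.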

Series [2] deals with HT22 cells (mouse hippocampal neuron). The description is as above. It is filed as cell-based. To be noted: Mus musculus, HT-22, five millimolar glutamate, 24 hrs, read-out: EC50 (neuroprotective effect against glutamate toxicity). The essentials: as §1
Series [3] concerns HT22 cells. The series is described as follows: ROS measurement using DCFDA in glutamate-treated HT22 cells. In kind it is cell-based. To be noted: Mus musculus, HT-22, 5 mM glutamate, 8 hrs. On the procedure: HT22 cells (1×10^4) plated in a 96-well plate were treated with 5 mM glutamate in the absence or presence of 3-HM.HBr or the compound of Example 26, and incubated for 8 hrs. After washing with PBS, cells were stained with 10 μM 2,7-dichlorodihydrofluorescein diacetate (DCFDA) in HBSS (Hank's balanced salt solution, Gibco) for 30 min in the dark. Then the cells were washed with PBS twice and extracted with 1% Triton X-100 in PBS for 10 min at 37° C. Fluorescence was recorded with the excitation wavelength of 490 nm and the emission wavelength of 525 nm (Infinite M200, TECAN) [Da-Qing, et. al., Anti-oxidant and anti-inflammatory activities of macelignan in murine hippocampal cell line and primary culture of rat microglia cells, BBRC, 2005, 331, 1264-1269]. The EC50 values were analyzed statistically using Prizm® (GraphPad Software Inc., San Diego, Calif., USA).

The test system of series [4] is SirT1. The series is described as follows: RT-PCR analysis of target gene expression under glutamate toxicity in HT22 cells. It is filed as cell-based, mouse. The conditions noted are these: 10 mM glutamate, 18 hrs. On the procedure: HT22 cells (1.5×10^7) plated in a 100 mm dish were treated with 10 mM glutamate in the absence or presence of 3-HM.HBr or the compound of Example 26 and incubated for 18 hrs. Oligonucleotide primers used for the PCR amplification were DJ-1 (PARK7), LRRK2 (Leucine-rich repeat kinase 2), PINK1 (PTEN induced putative kinase 1), SirT1 (silent mating type information regulation 2 homolog 1 (S. cerevisiae)), SirT2 (silent mating type information regulation 2 homolog 2 (S. cerevisiae)), and others. PCR products were electrophoresed on 2% agarose gels and detected by ethidium bromide [Kumiko I. et al., The Activation of Dopamine D4 Receptors Inhibits Oxidative Stress-Induced Nerve Cell Death., J. Neurosci., 2001].
FIG. 2A and FIG. 2B show the results of reverse transcription polymerase chain reaction.
In FIG. 2A, Lane 1 is mock, Lane 2 is the group treated with 10 mM Glutamate, and Lane 3 is the group treated with 10 mM Glutamate and 100 uM 3-HM.HBr. […]

The test system of series [5] is SirT1. In words: Western blotting analysis of SirT1 in glutamate-treated HT22 cells. It is filed as cell-based, mouse. The conditions noted are these: 10 mM glutamate, 18 hrs. As to the method:
HT22 cells (1.5×10^7) plated in a 100 mm dish were treated with 10 mM glutamate in the absence or presence of 3-HM.HBr or the compound of Example 26, and incubated for 18 hrs. The cells were collected by scraping in a sample buffer (3% SDS, 1% glycerol, 0.5% 2-mercaptoethanol, 0.05% bromophenol blue, and 80 mM Tris-HCl buffer, pH 6.8, with complete protease inhibitors). The resulting suspention was centrifuged and the pellets thus obtained were re-suspended in the sample buffer. The samples were heated for 3 min in boiling water, fractionated on 4-20% polyacrylamide gels, and electroblotted onto membranes. SirT1 affinity purified polyclonal antibody was used as the primary antibody. Immunoreactive bands were detected with the ECL (Amersham Pharmacia Biotech, Arlington Heights, Ill.) Western blotting detection reagents [Kumiko, I. et al., The Activation of Dopamine D4 Receptors Inhibits Oxidative Stress-Induced Nerve Cell Death., J. Neurosci., 2001, 21(16):6069-6076]. […]
Background: A western blot detects proteins with antibodies after separation by electrophoresis.

Series [6] is described as follows: Total antioxidant activity assay (TEAC; metmyoglobin, 2,2′-azinobis(3-ethylbenzoline 6-sulfonate), H2O2). As to the method: Briefly, 1 ml of reaction mixture including 2.5 μM metmyoglobin, 150 μM 2,2′-azinobis(3-ethylbenzoline 6-sulfonate), 75 μM H2O2, and 0.84% sample or Trolox (for standard) in PBS was incubated for 7.5 min at 30° C.; then the absorbance at 734 nm was measured. The data are normalized to 1 mM Trolox (TEAC activity) [Kumiko I. et al., The Activation of Dopamine D4 Receptors Inhibits Oxidative Stress-Induced Nerve Cell Death., J. Neurosci., 2001]. The EC50 values were analyzed statistically using Prizm® (GraphPad Software Inc., San Diego, Calif., USA).

Structures can show the parent of a compound that is named as a salt.

For `Oc1ccc2c(c1)[C@]13CCCC[C@@H]1[C@H](C2)NCC3` [3-HM•HBr, (+)-3-hydroxymorphinan HBr, reference compound], the CC50 (in general, the concentration at which the toxic effect on the cells reaches its halfway point) at 24 h in series [1] is over 100 µM. Also, the EC50 (commonly the concentration giving half of the maximal effect) in series [2] worked out at 31.3 µM; in series [3] it was 38.5 µM. Also, the “SirT1 expression levels (RT-PCR)” value in series [4] is recorded as “decreased SirT1 expression levels were elevated”. The “SirT1 expression (Western blotting)” value in series [5] was “this decreasing was protected”. For the same molecule, the “inhibition (total antioxidant activity)” value in series [6] (at 100 μM) was found to be 22.4%.

For `CC(C)(C)C(=O)Nc1ccccc1Nc1cc2c(cc1O)[C@]13CCCC[C@@H]1[C@H](C2)NCC3` [Example 115, (+)-3-Hydroxy-2-(2-(pivalamido)phenylamino)morphinan TFA salt], the midpoint of cytotoxicity in series [1], the CC50 at 24 h, lay at 53.6 µM. Besides, the EC50 in series [2] stood at 2.5 µM.

`CC(=O)Nc1ccc(Nc2cc3c(cc2O)[C@]24CCCC[C@@H]2[C@H](C3)NCC4)cc1` [Example 116, TFA salt] returned a CC50 at 24 h in series [1] of 36.5 µM. Moreover, the EC50 in series [2] amounted to 2.84 µM.

The molecule `CCOC(=O)Nc1ccccc1Nc1cc2c(cc1O)[C@]13CCCC[C@@H]1[C@H](C2)NCC3` [Example 117, (+)-2-(2-(Ethoxycarbonylamino)phenylamino)-3-hydroxymorphinan TFA salt] had a CC50 at 24 h in series [1] of 36.5 µM. In series [2], the concentration for a half-maximal effect (EC50) amounted to 1.08 µM.

Turning to `CC(C)COC(=O)Nc1ccccc1Nc1cc2c(cc1O)[C@]13CCCC[C@@H]1[C@H](C2)NCC3` [Example 119, (+)-3-Hydroxy-2-(2-(isobutyloxycarbonylamino)phenylamino)morphinan TFA salt], the CC50 at 24 h in series [1] amounted to 8.7 µM. Further, the EC50 in series [2] stood at 0.211 µM.

With `CCNC(=O)Nc1ccccc1Nc1cc2c(cc1O)[C@]13CCCC[C@@H]1[C@H](C2)NCC3` [Example 120, (+)-2-(2-(Ethylureido)phenylamino)-3-hydroxymorphinan TFA salt], the CC50 at 24 h in series [1] came to 36.5 µM. In addition, the EC50 in series [2] is 8.85 µM.

The molecule `CCCCNC(=O)Nc1ccccc1Nc1cc2c(cc1O)[C@]13CCCC[C@@H]1[C@H](C2)NCC3` [Example 121, (+)-2-(2-(Butylureido)phenylamino)-3-hydroxymorphinan TFA salt] came in with a CC50 at 24 h in series [1] of 23.1 µM. In series [2], the EC50 is over 100 µM.

`O=C(Nc1ccccc1)Nc1ccccc1Nc1cc2c(cc1O)[C@]13CCCC[C@@H]1[C@H](C2)NCC3` [Example 122, (+)-3-Hydroxy-2-(2-(phenylureido)phenylamino)morphinan TFA salt] gave a CC50 at 24 h in series [1] of 33.8 µM. Moreover, the EC50 in series [2] is 3.7 µM.

In the case of `CN(c1ccc(F)cc1)c1cc2c(cc1O)[C@]13CCCC[C@@H]1[C@H](C2)NCC3` [Example 124, (+)-2-(4-Fluorophenyl(methyl)amino)-3-hydroxymorphinan TFA salt], in series [1], the CC50 at 24 h was determined as 6.4 µM. Besides, the EC50 in series [2] was 0.371 µM.

Take `CN(c1cc2c(cc1O)[C@]13CCCC[C@@H]1[C@H](C2)NCC3)c1ccccc1NS(C)(=O)=O` [Example 125, (+)-3-Hydroxy-2-(2-(methanesulfonamido)phenyl(methyl)amino)morphinan TFA salt]: the CC50 at 24 h in series [1] was determined as 45.9 µM. In addition, the EC50 in series [2] is 10.9 µM.

With `CN(C)c1ccccc1Nc1cc2c(cc1O)[C@]13CCCC[C@@H]1[C@H](C2)NCC3` [Example 126, (+)-2-(2-(Dimethylamino)phenylamino)-3-hydroxymorphinan TFA salt], the CC50 at 24 h in series [1] was 6.1 µM. Besides, the EC50 in series [2] was found to be 0.0121 µM.

`CNc1ccccc1Nc1cc2c(cc1O)[C@]13CCCC[C@@H]1[C@H](C2)NCC3` [Example 127, (+)-3-Hydroxy-2-(2-(methylamino)phenylamino)morphinan TFA salt]: the CC50 at 24 h in series [1] turned out to be 1.3 µM. Further, in series [2], the EC50 worked out at 0.0621 µM.

In turn, `Oc1cc2c(cc1Nc1ccccc1N1CCCCC1)C[C@@H]1NCC[C@]23CCCC[C@H]13` [Example 128, (+)-3-Hydroxy-2-(2-(piperidin-1-yl)phenylamino)morphinan TFA salt] registered a CC50 at 24 h in series [1] of 1.6 µM. In addition, in series [2], the EC50 amounted to 0.0356 µM.

For `CCN(CC)c1ccccc1Nc1cc2c(cc1O)[C@]13CCCC[C@@H]1[C@H](C2)NCC3` [Example 129, (+)-2-(2-(Diethylamino)phenylamino)-3-hydroxymorphinan TFA salt], in series [1], half-maximal cytotoxicity (CC50 at 24 h) was put at 1.6 µM. For the same molecule, in series [2], the EC50 was 0.0439 µM.

On to `CCNc1ccccc1Nc1cc2c(cc1O)[C@]13CCCC[C@@H]1[C@H](C2)NCC3` [Example 130, (+)-2-(2-(Ethylamino)phenylamino)-3-hydroxymorphinan TFA salt], for which half-maximal cytotoxicity in series [1] (CC50 at 24 h) was put at 1.6 µM. Besides, the EC50 in series [2] was determined as 0.0112 µM.

In series [1], `CCN(C)c1ccccc1Nc1cc2c(cc1O)[C@]13CCCC[C@@H]1[C@H](C2)NCC3` [Example 131, (+)-2-(2-(Ethyl(methyl)amino)phenylamino)-3-hydroxymorphinan TFA salt] displayed a 50% cytotoxic concentration (CC50) at 24 h of 1.5 µM. Moreover, the EC50 in series [2] was 0.0177 µM.

The molecule `CS(=O)(=O)Nc1ccccc1Nc1c(O)cc2c(c1Br)C[C@@H]1NCC[C@]23CCCC[C@H]13` [Example 132, (+)-1-Bromo-3-hydroxy-2-(2-(methanesulfonamido)phenylamino)morphinan TFA salt] registered a CC50 at 24 h in series [1] of 10.6 µM. The EC50 in series [2] came out at 0.237 µM.

Consider `CS(=O)(=O)Nc1ccccc1Nc1c(O)cc2c(c1Cl)C[C@@H]1NCC[C@]23CCCC[C@H]13` [Example 133, (+)-1-Chloro-3-hydroxy-2-(2-(methanesulfonamido)phenylamino)morphinan TFA salt], for which the CC50 at 24 h in series [1] came to 16.5 µM. Moreover, the EC50 in series [2] amounted to 0.256 µM.

`Cc1c2c(cc(O)c1Nc1ccccc1NS(C)(=O)=O)[C@]13CCCC[C@@H]1[C@H](C2)NCC3` [Example 134, (+)-3-Hydroxy-2-(2-(methanesulfonamido)phenylamino)-1-methylmorphinan TFA salt] came in with a CC50 at 24 h in series [1] of 53.2 µM. For the same molecule, the EC50 in series [2] amounted to 0.153 µM.

On to `Cc1c(C)c2c(c(C)c1O)CCC(C)(C(=O)O)O2` (stereo not shown) [Trolox], for which the EC50 in series [6] (7.5 min at 30° C., absorbance at 734 nm) was determined as 47.5 µM.
